US20250221952A1, “METHODS AND COMPOSITIONS FOR LARGE MODIFICATIONS OF ATP OUTPUT BY INNER MITOCHONDRIAL MEMBRANE LATCHING” (priority 2025, published 2025)
Several values for one entry are separate records, joined by “and”; a condition that tells them apart may be missing. Identical values can stand only once. Entries after “also recorded” stand apart in the source; their conditions may differ. Like-named read-outs stand apart in the source and are kept apart here.

Assays:
[1] = test system: mitochondrial ATP output; experiment: Bicep curls to failure (reps-to-failure) as proxy for ATP output; type: in vivo, human; design: key to Latching: ↑: Up-latching is indicated by an up-arrow; ↓: down-latching by a down-arrow; —: others producing no significant effect are indicated by a dash; conditions: for Latching: Table 1, up-/down-latching of IMM judged by reps-to-failure; for change in reps-to-failure from baseline: 100 mg dose, baseline 11 reps
[2] = in vivo; cited from earlier work

Row | SMILES | latching behaviour as described in words [1] | Latching [1] | further results
1 | OC[C@@H](O)[C@@H](O)CO [Erythritol] | strong down-latchers | ↓ | reps-to-failure after dose ([1]; FIG. 6 point 630, dosed at up-latched level of about 49 reps): 11 reps
2 | OC[C@@H](O)[C@@H](O)[C@H](O)[C@@H](O)CO [Sorbitol] |  | ↓ | 
3 | O=C1c2c(O)cc(O)cc2O[C@H](c2cc(O)c(O)c(O)c2)[C@H]1O [DHM, Dihydromyricetin] | down-latching |  | reps-to-failure after dosing on top of up-latching ([1]; FIG. 9 curve 924, dosed at point 922 after lactate/AAKG/PQQ, baseline 20 reps, then recovery): substantially below baseline
4 | CCOC(=O)C(C)O (centres unmarked) [ethyl lactate] | strong down-latchers |  | 
5 | O=C(O)CCCCCC(=O)O [Pimelic acid] |  | ↑ | 
6 | Oc1ccc(C=Cc2cc(O)cc(O)c2)cc1 [Resveratrol] |  | ↓ | 
7 | O=C(O)c1cc(C(=O)O)c2c(n1)C(=O)C(=O)c1cc(C(=O)O)[nH]c1-2 [PQQ, Pyrroloquinoline quinone] |  |  | effect on fission and fusion reps-to-failure curves ([1]; FIG. 3A point 340, PQQ increased 5-fold to 100 mg, with one gram AAKG, person after shingles): near instant merger of fission and fusion lines
8 | c12c3c4c5c1c1c6c7c2c2c8c3c3c9c4c4c%10c5c5c1c1c6c6c%11c7c2c2c7c8c3c3c8c9c4c4c9c%10c5c5c1c1c6c6c%11c2c2c7c3c3c8c4c4c9c5c1c1c6c2c3c41 [C60, fullerene C60] |  |  | subsequent reps-to-failure performance ([1]; FIG. 6 curve 624, 3 mg C60 in MCT oil taken at 49 reps after up-latchers and DHM): almost flat
9 | O=C(O)/C=C/C(=O)O [Fumaric acid] | one of the best up-latchers | ↑ | reps-to-failure curve compared with curve 124 of the fumaric acid/AAKG combination ([1]; FIG. 1, dosed singly, neutralized, baseline 12 reps): much lower
10 | O=C(O)CCC(=O)O [Succinic acid] | indirect up-latcher | ↑ | peak reps-to-failure relative to fumaric and/or malic acids ([1]; combined with AAKG and a neutralizing base): about half; delay of reps-to-failure peak ([1]; combined with AAKG and a neutralizing base, versus fumaric/malic acids): about 15 minutes
11 | CN(C)c1ccc2nc3ccc(=[N+](C)C)cc-3sc2c1 [methylene blue, reference compound] |  |  | change in reps-to-failure from baseline ([1]; at 15 minutes): no change; change in reps-to-failure from baseline ([1]; at one hour): no change
12 | O=C(O)C(O)c1ccccc1 (centres unmarked) [Mandelic acid] |  | ↑ | reps-to-failure after dose ([1]; 1 g of salt, from 14 reps (after 3 g glycerol)): 31 reps
13 | CC(O)C(=O)O (centres unmarked) [Lactic acid] |  | ↑ | reps-to-failure relative to new baseline 350 ([1]; FIG. 3A points 360-362, after PQQ treatments): above baseline 350; biological half-life [2]: around 20 minutes
14 | OCC(O)CO [Glycerol] | strong down-latcher | ↓ | reps-to-failure after being reduced ([1]; 3 g, separate trials): 11 reps and 14 reps; reps-to-failure after being knocked down ([1]; 5 g): 14 reps; reps-to-failure after dose relative to baseline ([1]; FIG. 3A point 373, 5 g, from up-latched level): down to baseline; reps-to-failure after dose (stabilized) ([1]; FIG. 4, five grams, from 30 reps): about 13 reps
15 | O=C(O)CCCCC(=O)O [Adipic acid] |  | ↑ | reps-to-failure after dose ([1]; 1 gram with 1 gram AAKG and sodium bicarbonate, from 11 reps, in 20 minutes): 31 reps
16 | CC(C)=CCC/C(C)=C/C=C/C(C)=C/C=C/C(C)=C/C=C/C=C(C)/C=C/C=C(C)/C=C/C=C(\C)CCC=C(C)C [Lycopene] |  | ↑ | bicep curls to failure after dose ([1]; FIG. 7, 100 mg, from baseline of 6 reps, 70 minutes): 32 reps
17 | CC1=C(/C=C/C(C)=C/C=C/C(C)=C/C=C/C=C(C)/C=C/C=C(C)/C=C/C2=C(C)C[C@@H](O)CC2(C)C)C(C)(C)C[C@H](O)C1 [zeaxanthin] | substantially non-latcher |  | maximum bicep curls to failure after dose ([1]; FIG. 7 point 706, from baseline of 9 reps, in 15 minutes, then fell back): 14 reps

Row | SMILES | latching behaviour as described in words [1] | Latching [1] | further results
18 | O=C(O)CO [Glycolic acid] |  | ↑ | reps-to-failure after dose ([1]; .7 g, from 14 reps (after 5 g glycerol), in about 1 hour): 28 reps
19 | COC1=C(OC)C(=O)C(C/C=C(\C)CC/C=C(\C)CC/C=C(\C)CC/C=C(\C)CC/C=C(\C)CC/C=C(\C)CC/C=C(\C)CC/C=C(\C)CC/C=C(\C)CCC=C(C)C)=C(C)C1=O [CoQ-10] |  | — | 
20 | NC(=O)c1cccnc1 [nicotinamide] | down-latchers |  | 
21 | O=C(O)CCCCCCCC(=O)O [Azelaic acid] |  | ↑ | reps-to-failure after dose ([1]; one gram, used alone, from 13, in 30 minutes): 43 reps
22 | CN(CC(=O)O)C(=N)N [Creatine] | did not latch | — | 
23 | O=c1oc2cc(O)ccc2c2ccc(O)cc12 [Urolithin A] |  | ↓ | 
24 | O=C(O)CC(O)(CC(=O)O)C(=O)O [Citric acid] | strongest down-latchers; also recorded: strong down-latcher | ↓ | reps-to-failure after dose ([1]; 50 mg taken alone, from 20): 11 reps; reps-to-failure after dose ([1]; FIG. 11 point 1108, two grams neutralized, from baseline 22 reps, stays flat): 10 reps; bicep curls to failure after dose ([1]; about 2 g neutralized by bicarbonate, from 24 rep baseline, at 15 and 30 minutes): 11 reps; half-life in the body [2]: about 5 minutes
25 | O=C(O)CCCCCCC(=O)O [Suberic acid] |  | ↑ | 
26 | CCCCOC(=O)C(C)O (centres unmarked) [butyl lactate] | strong down-latchers |  | 
27 | O=C1NS(=O)(=O)c2ccccc21 [Saccharin] |  | .— | 
28 | O=C(O)CC(=O)C(=O)O [Oxaloacetic acid] |  | ↑ | 
29 | OC[C@@H](O)[C@@H](O)[C@H](O)[C@H](O)CO [Mannitol] |  | — | 
30 | O=C(O)CCC(=O)C(=O)O [AKG, Alpha-ketoglutarate] |  |  | latching behaviour as described in words ([1]; in vivo): weak up-latcher
31 | O=C(O)c1cccnc1 [Niacin] | down-latchers |  | 
32 | CC(=O)C(=O)O [Pyruvate] |  | — | 
33 | O=C(O)C(O)C(O)C(=O)O (centres unmarked) [Tartaric acid] |  | ↑ | reps-to-failure after dose ([1]; 2 g, from 11 reps (after 3 g glycerol)): 21 reps
34 | O=C(O)CC(O)C(=O)O (centres unmarked) [Malic acid] |  | ↑ | reps-to-failure after dose ([1]; as magnesium malate, from 10 reps (after 3 g glycerol and 1 g ethyl lactate), in 2 hours): 21 reps; reps-to-failure results compared with neutralized fumaric acid in FIG. 1 ([1]; separate trials, neutralized): nearly identical
